Data published in patent US11208416B2, “Selective inhibitors of protein arginine methytransterase 5 (PRMT5)” (Prelude Therapeutics, Incorporated, priority 2017, dated 2021).

What was measured:
[1] = target: PRMT5/MEP50 complex (Homo sapiens (Human), UniProt O14744); assay: Biochemical assay, PRMT5/MEP50 methylation of histone H2A with 3H-SAM; conditions: histone H2A 5 μM, PRMT5/MEP50 5 nM
Experimental: Biochemical Assay Protocol
Compounds were solubilized and 3-fold diluted in 100% DMSO. […] Standard reactions were performed in a total volume of […] assay buffer, with histone H2A (5 μM final) as substrate. To this was added the PRMT5/MEP50 complex diluted to provide a final assay concentration of 5 nM and the compounds were allowed to preincubate for 15 to 20 minutes at room temperature. The reaction was initiated by adding S-[3H-methyl]-adenosyl-L-methionine (PerkinElmer) to final concentration of […]. Following a 60 minutes incubation at 30° C., the reaction was stopped by adding 100 μL of 20% TCA. Each reaction was spotted onto filter plate (MultiScreen FB Filter Plate, Millipore), and washed 5 times with PBS buffer, Scintillation fluid was added to the filter plate and read in a scintillation counter. IC50 values were determined by fitting the data to the standard 4 parameters with Hill Slope using GraphPad Prism software.

[2] = tested on: Symmetric Di-Methyl Arginine (sDMA); assay: Western blot for sDMA marks in Granta cells (enzyme inhibition IC50); assay type: cell-based; conditions: Homo sapiens, 72 h; Granta-519 cell line, 3 days
[3] = tested on: Granta-519 cells; assay: Cell proliferation assay on Granta-519 cells (CCK-8); assay type: cell-based; conditions: Homo sapiens, 240 h; Granta-519 cell line, day 10; read-out: Prolif. IC50
Experimental: Cell Proliferation Assay to Determine IC50 on Granta-519 Cells
Granta-519 cells were maintained in PRMI 1640 (Corning Cellgro, Catalog #: 10-040-CV) medium supplemented with 10% v/v FBS (GE Healthcare, Catalog #: SH30910.03). Compounds were dissolved in DMSO to make 10 mM stocks and stored at −20° C. Nine-point, 3-fold serial dilutions were made with DMSO with top concentration at 1 mM (working stocks).
On day of experiment, compound working stocks were further diluted at 1:50 with fresh medium in 96 well plate, and 10 μL of diluted drugs were added to a new 96 well plate for proliferation assay. Cells growing at exponential phase were spun down at 1500 rpm for 4 min and resuspend in fresh medium to reach a density of 0.5×10^6 cells/ml. 200 ul of cells were added to 96 well plate containing diluted drugs and incubated for 3 days. DMSO was used a vehicle control.
One day 3, 10 μL of Cell Counting Kit-8 (CCK-8, Jojindo, CK04-13) solution was added to a new 96 well plate. […] Plates were incubated in CO2 incubator for 2 hours and OD450 values were measured with a microplate reader (iMark microplate reader, Bio-Rad). […]
Percentage of viable cells, relative to DMSO vehicle control, were calculated and plotted in Graphpad Prism ([Inhibitor] vs. normalized response−Variable slope) to determine proliferation IC50 values on day 10.

[4] = tested on: sDMA; assay: sDMA levels in tumor samples of Granta-519 mouse xenograft (Western blot); assay type: in vivo; conditions: 50 mg/kg orally QD
Experimental: Granta-519 cells was maintained in DMEM medium supplemented with 10% fetal bovine serum and 2 mM L-Glutamine at 37° C. in an atmosphere of 5% CO2 in air. Cells in exponential growth phase were harvested and 1×10^7 cells in 0.1 mL of PBS with Matrigel (1:1) were injected subcutaneously at the right lower flank region of each mouse for tumor development. The treatments were started when the mean tumor size reaches approximately 300-400 mm^3. […] Example 47 or vehicle (0.5% Na CMC+0.5% Tween80, suspension) were administered orally (QD for Example 47, QD for vehicle) at a dose of 30 mg/kg and 50 mg/kg for 19 and 16 days, respectively. Body weights and tumor size were measured every 3 to 4 days after randomization. Animals were euthanized 12 hours after last dosing, and blood and tumor samples were collected for analysis.
To measure sDMA levels in tumor samples, tumors from each mouse were weighted and homogenized in RIPA buffer supplemented with protease inhibitor (cOmplete™ EDTA-free Protease Inhibitor Cocktail, Roche). Lysate were centrifuged at 14,000 rpm for 30 min at 4° C. to remove debris. Total protein concentrations of lysate were determined by BCA assay (ThermoFisher Scientific, Catalog #: 23225). Equal amount of total proteins from each tumor were separated on SDS-PAGE gel, and sDMA levels were determined by WB as described previously.

Chain of PRMT5/MEP50 complex (O14744 whole entry): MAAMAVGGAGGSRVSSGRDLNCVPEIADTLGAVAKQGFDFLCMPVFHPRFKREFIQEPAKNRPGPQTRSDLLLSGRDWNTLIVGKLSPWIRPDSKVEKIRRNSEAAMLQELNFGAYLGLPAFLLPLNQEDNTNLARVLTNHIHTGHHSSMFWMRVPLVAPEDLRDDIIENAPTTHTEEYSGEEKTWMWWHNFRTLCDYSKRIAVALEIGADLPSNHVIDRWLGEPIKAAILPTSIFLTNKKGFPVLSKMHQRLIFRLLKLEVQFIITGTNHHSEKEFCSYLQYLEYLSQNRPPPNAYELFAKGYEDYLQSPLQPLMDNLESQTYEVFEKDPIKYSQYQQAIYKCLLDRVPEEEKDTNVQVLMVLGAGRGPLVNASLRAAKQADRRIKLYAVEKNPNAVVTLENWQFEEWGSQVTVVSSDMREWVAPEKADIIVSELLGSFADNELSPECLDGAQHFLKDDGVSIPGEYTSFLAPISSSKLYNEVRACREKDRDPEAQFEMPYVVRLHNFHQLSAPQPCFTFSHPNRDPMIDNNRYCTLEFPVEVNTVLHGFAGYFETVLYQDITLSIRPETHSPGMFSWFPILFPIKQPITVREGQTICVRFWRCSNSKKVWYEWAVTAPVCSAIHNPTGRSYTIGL
Chain of PRMT5/MEP50 complex (Q9BQA1 whole entry partner): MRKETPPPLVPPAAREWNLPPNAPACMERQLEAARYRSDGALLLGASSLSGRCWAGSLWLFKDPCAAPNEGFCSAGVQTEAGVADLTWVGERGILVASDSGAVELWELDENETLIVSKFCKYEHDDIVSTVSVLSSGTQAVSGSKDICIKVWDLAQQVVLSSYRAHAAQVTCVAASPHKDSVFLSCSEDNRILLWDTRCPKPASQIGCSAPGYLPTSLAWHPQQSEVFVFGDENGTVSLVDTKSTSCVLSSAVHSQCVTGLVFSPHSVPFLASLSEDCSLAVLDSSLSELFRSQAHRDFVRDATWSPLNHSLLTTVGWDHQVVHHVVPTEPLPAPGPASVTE

CSC[C@H]1O[C@@H](n2ccc3c(N)ncnc32)[C@H](O)[C@]1(C)O [Example 17, (2S,3S,4R,5R)-5-(4-amino-7H-pyrrolo[2,3-d]pyrimidin-7-yl)-3-methyl-2-((methylthio)methyl)tetrahydrofuran-3,4-diol]
IC50 [1]: 900 nM | IC50 [2]: 1000 nM | IC50 [3]: 200000 nM

C[C@@]1(O)[C@@H]([C@H](O)c2ccc(Cl)c(Cl)c2)O[C@@H](n2ccc3c(N)ncnc32)[C@@H]1O [Example 47, (2R,3S,4R,5R)-5-(4-amino-7H-pyrrolo[2,3-d]pyrimidin-7-yl)-2-((R)-(3,4-dichlorophenyl)(hydroxy)methyl)-3-methyltetrahydrofuran-3,4-diol]
sDMA level in tumor [4]: no detectable sDMA

Cc1ncnc2c1ccn2[C@@H]1O[C@H](Cc2ccc(Cl)cc2CO)[C@@](C)(O)[C@H]1O [Example 64, (2R,3S,4R,5R)-2-[[4-chloro-2-(hydroxymethyl)phenyl]methyl]-3-methyl-5-(4-methylpyrrolo[2,3-d]pyrimidin-7-yl)tetrahydrofuran-3,4-diol]
IC50 [1]: 1610 nM
